Experimental data from patent publication US11407711B2, “Benzamide compound and use thereof” (METISA BIOTECHNOLOGY CO., LTD., priority 2018, dated 2022).
Like-named read-outs stand apart in the source and are kept apart here.

Assays:
Type in all cases: in vivo
Plutella xylostella = experiment: Insecticidal activity against Plutella xylostella (Airbrush spray on cabbage leaf discs); conditions: for pest or weed control at 10 µg/mL / pest or weed control at 0.5 µg/mL / pest or weed control at 1 µg/mL: Plutella xylostella, foliar, 72 h; for Fatality rate (%, 3 d after administration) 5 mg/L: Table 72, 5 mg/L; for Fatality rate (%, 3 d after administration) 0.05 mg/L: Table 74, 0.05 mg/L
Experimental: (§1) The compound to be tested was dissolved by a mixed solvent of acetone/methanol (1:1), and then diluted by water containing 0.1% (wt) Tween 80 to the required concentration.
(§2) An Airbrush spray method was adopted for the determination of the activity, with armyworm, Plutella xylostella and Chilo suppressalis as targets.
Determination method: cabbage blades were punched into 2 cm (diameter) leaf discs by a puncher; with the pressure of Airbrush spray being 10 psi (about 0.7 kg/cm^2), both sides of each leaf disc were sprayed with the amount of 0.5 ml. After dried in the shade, each leaf disc was inoculated with 10 3rd-instar larvaes, 3 repeats for each leaf disc. And then, the treated leaf discs were put into an observation room (25° C., relative humidity: 60-70%) for cultivation; the number of the survivals was surveyed 1 d, 2 d and 3 d after administration, and then the death rate was calculated.

armyworm = experiment: Insecticidal activity against armyworm (Airbrush spray on maize blade segments); conditions: 72 h, read-out: fatality rate against armyworm
Experimental: as §1, §2
Determination method: maize blades were cut into 2 cm (length) segments; with the pressure of Airbrush spray being 10 psi (about 0.7 kg/cm^2), both sides of each blade segment were sprayed with the amount of 0.5 ml. After dried in the shade, each segment was inoculated with 10 3rd-instar larvaes, 3 repeats for each segment. And then, the treated segments were put into an observation room (25° C., relative humidity: 60-70%) for cultivation; the number of the survivals was surveyed 1 d, 2 d and 3 d after administration, and then the death rate was calculated.

Chilo suppressalis = experiment: Insecticidal activity against Chilo suppressalis (spray on rice seedlings, stems fed to larvae)
Experimental: as §1, §2
Determination method: 1) preparation of rice seedlings: rice was cultivated in small plastic cups (diameter: 4.5 cm and height: 4 cm) at a constant temperature room (temperature: 26-28° C., relative humidity: 60-80% around and illumination: 16 hL:8 hD), after the rice grew to a 4-5 leaf stage, vigorous and uniform-growth rice seedlings were selected and treated with an insecticide, 3 repeats for each treatment. 2) Preparation of pests for test: 3rd-instar larvaes of Chilo suppressalis fed continuously in the room. 3) Inoculation of pests on rice stems by spray. The whole plants of the rice seedlings were sprayed by a spray method uniformly, with the dose of 15 ml for each treatment. The blank control was treated first, and the above operation was repeated in an order of lower to higher test concentration. After sprayed, rice seedlings were placed in the shade to dry the insecticide liquor, and then stalks about 5 cm above the basal part of the stems were cut to be fed to the pests for test. Glass petri dishes (diameter: […]) were prepared, cushioned by filter paper at the bottom thereof, and subjected to water addition for moisturizing; about 20 pieces of rice stems were put in each dish and inoculated with 10 larvaes; then the petri dishes were closed by non-woven fabrics and placed in a constant temperature room for culture. The number of survivals was surveyed 3 d after administration.

[1] = Table 71, 10 mg/L, 3 d after administration, read-out: Fatality rate (%, 3 d after administration) 10 mg/L
[2] = read-out: Fatality rate (%, 3 d after administration) 1 mg/L, Table 73, 1 mg/L, 3 d after administration
[3] = read-out: Fatality rate (%, 3 d after administration) 10 mg/L, Table 71, 10 mg/L, 3 d after administration
[4] = Chilo suppressalis, 72 h, read-out: fatality rate against Chilo suppressalis
[5] = 0.1 mg/L, 3 d after administration, 3rd-instar larvae
[6] = 0.5 mg/L, 3 d after administration, 3rd-instar larvae
[7] = 1 mg/L, 3 d after administration, read-out: fatality rate against Plutella xylostella
[8] = Chilo suppressalis, 72 h, 4 mg/L, survivals surveyed 3 d after administration, read-out: fatality rate against Chilo suppressalis
[9] = Chilo suppressalis, 72 h, 40 mg/L, survivals surveyed 3 d after administration, read-out: fatality rate against Chilo suppressalis
[10] = Table 73, 0.5 mg/L, 3 d after administration
[11] = Table 73, 1 mg/L, 3 d after administration
[12] = Table 73, 0.5 mg/L, 3 d after administration, read-out: Fatality rate (%, 3 d after administration) 0.5 mg/L
[13] = Table 73, 1 mg/L, 3 d after administration, read-out: Fatality rate (%, 3 d after administration) 1 mg/L
[14] = Table 72, 1 mg/L, 3 d after administration
[15] = Table 76, fast-acting efficacy, dose 0.05 mg/L
[16] = Table 74, 0.5 mg/L, 3 d after administration
[17] = Table 75, fast-acting efficacy, dose 0.5 mg/L

Cc1cc(C(F)(C(F)(F)F)C(F)(F)F)cc(C)c1NC(=O)c1cccc(N(C#N)C(=O)c2ccccc2)c1 [CK3, reference compound]
pest or weed control at 10 µg/mL (Plutella xylostella; [1]): 0%

N#CCN(C(=O)c1ccccc1)c1cccc(C(=O)N(CC#N)c2c(Br)cc(C(F)(C(F)(F)F)C(F)(F)F)cc2Br)c1F [Compound 58.321]
pest or weed control at 0.1 µg/mL (armyworm): ≥ 90%
pest or weed control at 0.5 µg/mL (armyworm): ≥ 90%
pest or weed control at 0.5 µg/mL (Plutella xylostella; read-out: Fatality rate (%, 3 d after administration) 0.5 mg/L, Table 73, 0.5 mg/L, 3 d after administration): 98%
pest or weed control at 1 µg/mL (Plutella xylostella; [2]): 100%
pest or weed control at 10 µg/mL (Plutella xylostella; [3]): 100%
pest or weed control at 0.5 µg/mL (Plutella xylostella; read-out: fatality rate against Plutella xylostella, 0.5 mg/L, 3 d after administration): ≥ 90%
pest or weed control at 1 µg/mL (Plutella xylostella; read-out: fatality rate against Plutella xylostella, 1 mg/L, 3 d after administration): ≥ 90%
pest or weed control at 4 µg/mL (Chilo suppressalis; [4]): ≥ 90%
pest or weed control at 40 µg/mL (Chilo suppressalis; [4]): ≥ 90%

N#CCN(C(=O)c1cccc(NC(=O)c2ccccc2)c1F)c1c(Cl)cc(C(F)(C(F)(F)F)C(F)(F)F)cc1Cl [Compound 17.321]
pest or weed control at 0.1 µg/mL (armyworm; [5]): ≥ 90%
pest or weed control at 0.5 µg/mL (armyworm; [6]): ≥ 90%
pest or weed control at 1 µg/mL (Plutella xylostella; [7]): ≥ 90%
pest or weed control at 10 µg/mL (Plutella xylostella; [1]): 100%
pest or weed control at 4 µg/mL (Chilo suppressalis; [8]): ≥ 90%
pest or weed control at 40 µg/mL (Chilo suppressalis; [9]): ≥ 90%

NC(=O)CCN(C(=O)c1ccccc1)c1cccc(C(=O)N(CCC(N)=O)c2c(Br)cc(C(F)(C(F)(F)F)C(F)(F)F)cc2C(F)(F)F)c1F [CK9, reference compound]
Fatality rate (%, 3 d after administration) 0.5 mg/L (Plutella xylostella; [10]): 0%
Fatality rate (%, 3 d after administration) 1 mg/L (Plutella xylostella; [11]): 55%

N#CCN(C(=O)c1ccc(F)cc1)c1cccc(C(=O)Nc2c(Br)cc(C(F)(C(F)(F)F)C(F)(F)F)cc2Br)c1F [Compound 2.7]
pest or weed control at 0.05 µg/mL (armyworm; 0.05 mg/L, 3 d after administration, 3rd-instar larvae): ≥ 90%
pest or weed control at 0.1 µg/mL (armyworm; [5]): ≥ 90%
pest or weed control at 0.5 µg/mL (armyworm; [6]): ≥ 90%
pest or weed control at 0.5 µg/mL (Plutella xylostella; 0.5 mg/L, 3 d after administration, read-out: fatality rate against Plutella xylostella): ≥ 90%
pest or weed control at 1 µg/mL (Plutella xylostella; [7]): ≥ 90%
pest or weed control at 10 µg/mL (Plutella xylostella; [1]): 100%
pest or weed control at 0.5 µg/mL (Plutella xylostella; [12]): 100%
pest or weed control at 1 µg/mL (Plutella xylostella; [13]): 100%
pest or weed control at 1 µg/mL (Chilo suppressalis; Chilo suppressalis, 72 h, 1 mg/L, survivals surveyed 3 d after administration, read-out: fatality rate against Chilo suppressalis): ≥ 90%
pest or weed control at 4 µg/mL (Chilo suppressalis; [8]): ≥ 90%
pest or weed control at 40 µg/mL (Chilo suppressalis; [9]): ≥ 90%

COCN(C(=O)c1ccccc1)c1cccc(C(=O)Nc2c(C)cc(C(F)(C(F)(F)F)C(F)(F)F)cc2C)c1 [CK2, reference compound]
pest or weed control at 10 µg/mL (Plutella xylostella; [1]): 0%

NC(=O)CCN(C(=O)c1ccccc1)c1cccc(C(=O)N(CCC(N)=O)c2c(Br)cc(C(F)(C(F)(F)F)C(F)(F)F)cc2C(F)(F)F)c1F [CK5, reference compound]
pest or weed control at 1 µg/mL (Plutella xylostella; read-out: Fatality rate (%, 3 d after administration) 1 mg/L, Table 72, 1 mg/L, 3 d after administration): 0%
Fatality rate (%, 3 d after administration) 5 mg/L (Plutella xylostella; 3 d after administration): 63.5%

NC(=O)CCN(C(=O)c1ccccc1)c1cccc(C(=O)N(CCC(N)=O)c2c(Br)cc(C(F)(C(F)(F)F)C(F)(F)F)cc2C(F)(F)F)c1F [CK8, reference compound]
Fatality rate (%, 3 d after administration) 1 mg/L (Plutella xylostella; [14]): 0%
Fatality rate (%, 3 d after administration) 5 mg/L (Plutella xylostella; 3 d after administration): 65.8%

CN(C(=O)c1ccccc1)c1cccc(C(=O)Nc2c(Br)cc(C(F)(C(F)(F)F)C(F)(F)F)cc2C(F)(F)F)c1F [CK16, broflanilide, reference compound]
pest or weed control at 0.5 µg/mL (Plutella xylostella; Table 74, 0.5 mg/L, 3 d after administration, read-out: Fatality rate (%, 3 d after administration) 0.5 mg/L): 100%
Fatality rate (%, 3 d after administration) 0.05 mg/L (Plutella xylostella; 3 d after administration): 80.8%
Fatality rate (%) 1 d after administration (Plutella xylostella; [15]): 0%
Fatality rate (%) 2 d after administration (Plutella xylostella; [15]): 52.5%
Fatality rate (%) 3 d after administration (Plutella xylostella; Table 76, fast-acting efficacy, dose 0.05 mg/L, 3 d after administration): 80.8%
Fatality rate (%, 3 d after administration) 0.625 mg/L (Chilo suppressalis; Table 78, 0.625 mg/L, 3 d after administration): 10%
Fatality rate (%, 3 d after administration) 1.25 mg/L (Chilo suppressalis; Table 78, 1.25 mg/L, 3 d after administration): 60.3%
Fatality rate (%, 3 d after administration) 2.5 mg/L (Chilo suppressalis; Table 78, 2.5 mg/L, 3 d after administration): 85.5%

NC(=O)CCN(C(=O)c1ccccc1)c1cccc(C(=O)N(CCC(N)=O)c2c(Br)cc(C(F)(C(F)(F)F)C(F)(F)F)cc2C(F)(F)F)c1F [CK7, reference compound]
pest or weed control at 0.5 µg/mL (Plutella xylostella; read-out: Fatality rate (%, 3 d after administration) 0.5 mg/L, Table 74, 0.5 mg/L, 3 d after administration): 70%
Fatality rate (%, 3 d after administration) 0.05 mg/L (Plutella xylostella; 3 d after administration): 0%

NC(=O)CCN(C(=O)c1ccccc1)c1cccc(C(=O)N(CCC(N)=O)c2c(Br)cc(C(F)(C(F)(F)F)C(F)(F)F)cc2C(F)(F)F)c1F [CK14, reference compound]
Fatality rate (%, 3 d after administration) 0.05 mg/L (Plutella xylostella; 3 d after administration): 0%
Fatality rate (%, 3 d after administration) 0.5 mg/L (Plutella xylostella; [16]): 60%

NC(=O)CCN(C(=O)c1ccccc1)c1cccc(C(=O)N(CCC(N)=O)c2c(Br)cc(C(F)(C(F)(F)F)C(F)(F)F)cc2C(F)(F)F)c1F [CK12, reference compound]
Fatality rate (%, 3 d after administration) 1 mg/L (Plutella xylostella; [14]): 0%
Fatality rate (%, 3 d after administration) 5 mg/L (Plutella xylostella; 3 d after administration): 60%

O=C(Nc1cccc(C(=O)Nc2c(Br)cc(C(F)(C(F)(F)F)C(F)(F)F)cc2Br)c1F)c1ccccc1 [CK15, reference compound]
pest or weed control at 0.5 µg/mL (Plutella xylostella; [12]): 50%
pest or weed control at 1 µg/mL (Plutella xylostella; [13]): 90%
Fatality rate (%) 1 d after administration (Plutella xylostella; [17]): 0%
Fatality rate (%) 2 d after administration (Plutella xylostella; [17]): 30%
Fatality rate (%) 3 d after administration (Plutella xylostella; Table 75, fast-acting efficacy, dose 0.5 mg/L, 3 d after administration): 50%
Fatality rate (%, 3 d after administration) 1.25 mg/L (Chilo suppressalis; Table 77, 1.25 mg/L, 3 d after administration): 8.6%
Fatality rate (%, 3 d after administration) 2.5 mg/L (Chilo suppressalis; Table 77, 2.5 mg/L, 3 d after administration): 22.2%
Fatality rate (%, 3 d after administration) 5 mg/L (Chilo suppressalis; Table 77, 5 mg/L, 3 d after administration): 50.3%

COCN(C(=O)c1ccccc1)c1cccc(C(=O)N(C)c2c(C)cc(C(F)(C(F)(F)F)C(F)(F)F)cc2C)c1 [CK1, reference compound]
pest or weed control at 10 µg/mL (Plutella xylostella; [1]): 0%

NC(=O)CCN(C(=O)c1ccccc1)c1cccc(C(=O)N(CCC(N)=O)c2c(Br)cc(C(F)(C(F)(F)F)C(F)(F)F)cc2C(F)(F)F)c1F [CK4, reference compound]
pest or weed control at 10 µg/mL (Plutella xylostella; [3]): 0%

NC(=O)CCN(C(=O)c1ccccc1)c1cccc(C(=O)N(CCC(N)=O)c2c(Br)cc(C(F)(C(F)(F)F)C(F)(F)F)cc2C(F)(F)F)c1F [CK11, reference compound]
Fatality rate (%, 3 d after administration) 0.05 mg/L (Plutella xylostella; 3 d after administration): 0%
Fatality rate (%, 3 d after administration) 0.5 mg/L (Plutella xylostella; [16]): 75%

NC(=O)CCN(C(=O)c1ccccc1)c1cccc(C(=O)N(CCC(N)=O)c2c(Br)cc(C(F)(C(F)(F)F)C(F)(F)F)cc2C(F)(F)F)c1F [CK13, reference compound]
Fatality rate (%, 3 d after administration) 0.5 mg/L (Plutella xylostella; [10]): 0%
Fatality rate (%, 3 d after administration) 1 mg/L (Plutella xylostella; [11]): 75%

NC(=O)CCN(C(=O)c1ccccc1)c1cccc(C(=O)N(CCC(N)=O)c2c(Br)cc(C(F)(C(F)(F)F)C(F)(F)F)cc2C(F)(F)F)c1F [CK6, reference compound]
pest or weed control at 1 µg/mL (Plutella xylostella; [2]): 68%
Fatality rate (%, 3 d after administration) 0.5 mg/L (Plutella xylostella; [10]): 10%

NC(=O)CCN(C(=O)c1ccccc1)c1cccc(C(=O)N(CCC(N)=O)c2c(Br)cc(C(F)(C(F)(F)F)C(F)(F)F)cc2C(F)(F)F)c1F [CK10, reference compound]
Fatality rate (%, 3 d after administration) 0.5 mg/L (Plutella xylostella; [10]): 0%
Fatality rate (%, 3 d after administration) 1 mg/L (Plutella xylostella; [11]): 55%
